Results on one compound are retold here after patent publication US6939686B2, “Methodology of using raman imaging microscopy for evaluating drug action within living cells” (Southwest Research Institute, priority 2000, dated 2005).

The subject of the data set is MDA435 breast cancer cells. Put plainly: Ratio Raman imaging of drug uptake and distribution in a single living cell. The class given is cell-based. The method, then: Raman imaging of the cell-drug interactions consists of several steps. First, the Raman spectrum of the drug is measured. From the Raman spectrum, the locations and relative intensities of the Raman peaks (or Raman modes) is determined. The combination of the multiple Raman peaks and their relative intensities provides a unique fingerprint of the drug. In the preferred embodiment, the Raman spectrum of the anticancer drug taxol was measured as illustrated in FIG. 1. From the spectrum the most significant Raman mode is 1002 cm^−1.
In the preferred embodiment the Raman signal of a breast tumor cell was studied and the Raman spectrum was measured. […] The laser beam was focused in the cell cytoplasm and nucleus areas to determine if there was any difference in their spectra. Each measurement was 120 seconds long. FIGS. 2 and 3 illustrate the Raman spectra of the cytoplasm and nucleus of the breast tumor cell, respectively. […]
The acquired Raman images are then processed by smoothing noises, de-blurring, and removing the intensity contributed from the fluorescence. […]
The restored Raman signal still contained the non-uniform illumination effect and fluorescent contribution, illustrated as follows: s(x,y)=K(x,y)·i(x,y)·t+Ko(x,y)·i(x,y)·t. From the Raman spectra illustrated in FIGS. 1-3, Raman peaks are riding on a broadband baseline that is contributed from the fluorescence. […]

As for `CC(=O)O[C@H]1C(=O)[C@@]2(C)[C@H]([C@H](OC(=O)c3ccccc3)[C@]3(O)C[C@H](OC(=O)[C@H](O)[C@@H](NC(=O)c4ccccc4)c4ccccc4)C(C)=C1C3(C)C)[C@]1(OC(C)=O)CO[C@@H]1C[C@@H]2O` [taxol], under “breast tumor cell exposed to 0.3 mg/ml taxol solution for one hour, FIG. 5(b)”, the “drug distribution within the cell (ratio Raman image at 1002 cm^−1)” value was “taxol entered the tumor cell from the top membrane and gradually penetrated into the center of the cell”. Besides, the “drug distribution at different depths of the cell (stack of ratio Raman images)” value (breast tumor cell treated with 0.3 mg/ml taxol solution for one hour, FIG. 7) is recorded as “More drug entered the cell from the middle layer (Z=6 μm)”.
